≈ marks a conversion by molar mass, not a printed value. Starred links: 1 amine or outer side, 2 acyl side, 3 side chain; linkers in the order of their positions; H or OH if unused. Positions of bridges follow the written chain, without caps; N, C: chain ends. Non-standard residues stand in square brackets, D forms with d. Residues, ends and D or L forms follow the SMILES beside them. *: point of attachment. hTyr(3S-OH,4S-OH,3'-OSO3H) = N[C@H](C(=O)O)[C@H](O)[C@@H](O)c1ccc(O)c(OS(=O)(=O)O)c1; pTerphenylCO(4''-OnC5H11) = CCCCCOc1ccc(-c2ccc(-c3ccc(C(=O)*)cc3)cc2)cc1; Orn(4R-OH,5R-OH) = O=C([C@H](C[C@@H](O)[C@@H](O)N[*:3])N[*:1])[*:2]; hTyr(3S-OH,4S-OH) = N[C@H](C(=O)O)[C@H](O)[C@@H](O)c1ccc(O)cc1; Pro(3S-OH,4S-Me) = C[C@H]1CN[C@H](C(=O)O)[C@H]1O; X1 = CCCCCOc1ccc(-c2cc(-c3ccc(C(=O)*)cc3)no2)cc1; Gln(3R-OH) = NC(=O)C[C@@H](O)[C@H](N)C(=O)O; Hyp = O=C(O)[C@@H]1C[C@@H](O)CN1
Tests used:
Format in all cases: functional
[1] = system: Candida albicans; assay: Antifungal activity against Candida albicans 4715 expressing FKS1 F641S mutant after 24 hrs by broth microdilution method in presence of 50% human serum; settings: Candida albicans, 4715, 24 h
[2] = system: Candida albicans; assay: Antifungal activity against Candida albicans 42996 expressing FKS1 F641S mutant after 24 hrs by broth microdilution method; settings: Candida albicans, 42996, 24 h
[3] = system: Candida albicans; assay: Antifungal activity against Candida albicans 4254 expressing FKS1 F641S mutant after 24 hrs by broth microdilution method in presence of 50% human serum; settings: Candida albicans, 4254, 24 h
[4] = system: Candida albicans; assay: Antifungal activity against Candida albicans 42286 expressing wild type FKS1 after 24 hrs by broth microdilution method; settings: Candida albicans, 42286, 24 h
[5] = system: Candida albicans; assay: Antifungal activity against Candida albicans 41509 expressing FKS1 F641S mutant after 24 hrs by broth microdilution method in presence of 50% human serum; settings: Candida albicans, 41509, 24 h
[6] = system: Candida albicans; assay: Antifungal activity against Candida albicans 5415 expressing FKS1 F645P/H mutant after 24 hrs by broth microdilution method in presence of 50% human serum; settings: Candida albicans, 5415, 24 h
[7] = system: Candida albicans; assay: Antifungal activity against Candida albicans 53264 expressing FKS1 F645P mutant after 24 hrs by broth microdilution method; settings: Candida albicans, 53264, 24 h
[8] = system: Candida albicans; assay: Antifungal activity against Candida albicans 5415 expressing FKS1 F645P/H mutant after 24 hrs by broth microdilution method; settings: Candida albicans, 5415, 24 h
[9] = system: Candida albicans; assay: Antifungal activity against Candida albicans 41301 expressing FKS1 F641S mutant after 24 hrs by broth microdilution method in presence of 50% human serum; settings: Candida albicans, 41301, 24 h
[10] = system: Candida albicans; assay: Antifungal activity against Candida albicans 32746 expressing FKS1 F641S mutant after 24 hrs by broth microdilution method in presence of 50% human serum; settings: Candida albicans, 32746, 24 h
[11] = system: Candida albicans; assay: Antifungal activity against Candida albicans 42286 expressing wild type FKS1 after 24 hrs by broth microdilution method in presence of 50% human serum; settings: Candida albicans, 42286, 24 h
[12] = system: Candida albicans; assay: Antifungal activity against Candida albicans 4254 expressing FKS1 F641S mutant after 24 hrs by broth microdilution method; settings: Candida albicans, 4254, 24 h
[13] = system: Candida albicans; assay: Antifungal activity against Candida albicans 32746 expressing FKS1 F641S mutant after 24 hrs by broth microdilution method; settings: Candida albicans, 32746, 24 h
[14] = system: Candida albicans; assay: Antifungal activity against Candida albicans SC5314 expressing wild type FKS1 after 24 hrs by broth microdilution method; settings: SC5314, 24 h
[15] = system: Candida albicans; assay: Antifungal activity against Candida albicans 41301 expressing FKS1 F641S mutant after 24 hrs by broth microdilution method; settings: Candida albicans, 41301, 24 h
[16] = system: Candida albicans; assay: Antifungal activity against Candida albicans 42379 expressing FKS1 F645P mutant after 24 hrs by broth microdilution method in presence of 50% human serum; settings: Candida albicans, 42379, 24 h
[17] = system: Candida albicans; assay: Antifungal activity against Candida albicans 2762 expressing FKS1 F641S mutant after 24 hrs by broth microdilution method; settings: Candida albicans, 2762, 24 h
[18] = system: Candida albicans; assay: Antifungal activity against Candida albicans 2762 expressing FKS1 F641S mutant after 24 hrs by broth microdilution method in presence of 50% human serum; settings: Candida albicans, 2762, 24 h
[19] = system: Candida albicans; assay: Antifungal activity against Candida albicans 53264 expressing FKS1 F645P mutant after 24 hrs by broth microdilution method in presence of 50% human serum; settings: Candida albicans, 53264, 24 h
[20] = system: Candida albicans; assay: Antifungal activity against Candida albicans 43001 expressing FKS1 F641S mutant after 24 hrs by broth microdilution method in presence of 50% human serum; settings: Candida albicans, 43001, 24 h
[21] = system: Candida albicans; assay: Antifungal activity against Candida albicans 43001 expressing FKS1 F641S mutant after 24 hrs by broth microdilution method; settings: Candida albicans, 43001, 24 h
[22] = system: Candida albicans; assay: Antifungal activity against Candida albicans 42379 expressing FKS1 F645P mutant after 24 hrs by broth microdilution method; settings: Candida albicans, 42379, 24 h
[23] = system: Candida albicans; assay: Antifungal activity against Candida albicans 4715 expressing FKS1 F641S mutant after 24 hrs by broth microdilution method; settings: Candida albicans, 4715, 24 h
[24] = system: Candida albicans; assay: Antifungal activity against Candida albicans SC5314 expressing wild type FKS1 after 24 hrs by broth microdilution method in presence of 50% human serum; settings: SC5314, 24 h
[25] = system: Candida albicans; assay: Antifungal activity against Candida albicans 41509 expressing FKS1 F641S mutant after 24 hrs by broth microdilution method; settings: Candida albicans, 41509, 24 h
[26] = system: Candida albicans; assay: Antifungal activity against Candida albicans 42996 expressing FKS1 F641S mutant after 24 hrs by broth microdilution method in presence of 50% human serum; settings: Candida albicans, 42996, 24 h

| Structure (SMILES) | MIC [1] [µg/mL] | MIC [2] [µg/mL] | MIC [3] [µg/mL] | MIC [4] [µg/mL] | MIC [5] [µg/mL] | MIC [6] [µg/mL] | MIC [7] [µg/mL] | MIC [8] [µg/mL] | MIC [9] [µg/mL] | MIC [10] [µg/mL] | MIC [11] [µg/mL] | MIC [12] [µg/mL] | MIC [13] [µg/mL] | MIC [14] [µg/mL] | MIC [15] [µg/mL] | MIC [16] [µg/mL] | MIC [17] [µg/mL] | MIC [18] [µg/mL] | MIC [19] [µg/mL] | MIC [20] [µg/mL] | other results |
| --- | --- | --- | --- | --- | --- | --- | --- | --- | --- | --- | --- | --- | --- | --- | --- | --- | --- | --- | --- | --- | --- |
| CCCCCOc1ccc(-c2ccc(-c3ccc(C(=O)N[C@H]4C[C@@H](O)[C@@H](O)NC(=O)[C@@H]5[C@@H](O)[C@@H](C)CN5C(=O)[C@H]([C@@H](C)O)NC(=O)[C@H]([C@H](O)[C@@H](O)c5ccc(O)cc5)NC(=O)[C@@H]5C[C@@H](O)CN5C(=O)[C@H]([C@@H](C)O)NC4=O)cc3)cc2)cc1 [ANIDULAFUNGIN] ({pTerphenylCO(4''-OnC5H11)}-[Orn(4R-OH,5R-OH)]T[Hyp][hTyr(3S-OH,4S-OH)]T[Pro(3S-OH,4S-Me)]; lactam 1-C) | 8 | 0.125 (≈ 0.11 µM) | 2 | 0.125 (≈ 0.11 µM) | 8 | 16 | 1 (≈ 0.877 µM) | 1 (≈ 0.877 µM) | 8 | 8 | 1 | 0.125 (≈ 0.11 µM) | 0.25 (≈ 0.219 µM) | 0.03 (≈ 0.0263 µM) | 0.25 (≈ 0.219 µM) | 8 | 0.5 (≈ 0.438 µM) | 4 | 32 | 4 | MIC [21]: 0.5 µg/mL (≈ 0.438 µM); MIC [22]: 0.5 µg/mL (≈ 0.438 µM); MIC [23]: 0.25 µg/mL (≈ 0.219 µM); MIC [24]: 0.5 µg/mL; MIC [25]: 0.5 µg/mL (≈ 0.438 µM); MIC [26]: 4 µg/mL |
| CC[C@H](C)C[C@H](C)CCCCCCCCC(=O)N[C@H]1C[C@@H](O)[C@@H](NCCN)NC(=O)[C@@H]2[C@@H](O)CCN2C(=O)[C@H]([C@H](O)CCN)NC(=O)[C@H]([C@H](O)[C@@H](O)c2ccc(O)cc2)NC(=O)[C@@H]2C[C@@H](O)CN2C(=O)[C@H]([C@@H](C)O)NC1=O [CASPOFUNGIN] | 8 | 4 (≈ 3.66 µM) | 4 | 2 (≈ 1.83 µM) | 8 | 32 | 4 (≈ 3.66 µM) | 8 (≈ 7.32 µM) | 8 | 4 | 4 | 2 (≈ 1.83 µM) | 4 (≈ 3.66 µM) | 0.125 (≈ 0.114 µM) | 4 (≈ 3.66 µM) | > 32 | 4 (≈ 3.66 µM) | 8 | > 32 | 8 | MIC [21]: 4 µg/mL (≈ 3.66 µM); MIC [22]: 8 µg/mL (≈ 7.32 µM); MIC [23]: 2 µg/mL (≈ 1.83 µM); MIC [24]: 0.25 µg/mL; MIC [25]: 4 µg/mL (≈ 3.66 µM); MIC [26]: 8 µg/mL |
| CCCCCOc1ccc(-c2cc(-c3ccc(C(=O)N[C@H]4C[C@@H](O)[C@@H](O)NC(=O)[C@@H]5[C@@H](O)[C@@H](C)CN5C(=O)[C@H]([C@H](O)CC(N)=O)NC(=O)[C@H]([C@H](O)[C@@H](O)c5ccc(O)c(OS(=O)(=O)O)c5)NC(=O)[C@@H]5C[C@@H](O)CN5C(=O)[C@H]([C@@H](C)O)NC4=O)cc3)no2)cc1 [MICAFUNGIN] (X1-[Orn(4R-OH,5R-OH)]T[Hyp][hTyr(3S-OH,4S-OH,3'-OSO3H)][Gln(3R-OH)][Pro(3S-OH,4S-Me)]; lactam 1-C) | 16 | 1 (≈ 0.787 µM) | 8 | 1 (≈ 0.787 µM) | 32 | 32 | 4 (≈ 3.15 µM) | 1 (≈ 0.787 µM) | 16 | 16 | 8 | 0.5 (≈ 0.394 µM) | 1 (≈ 0.787 µM) | 0.06 (≈ 0.0472 µM) | 0.5 (≈ 0.394 µM) | > 32 | 1 (≈ 0.787 µM) | 16 | > 32 | 16 | MIC [21]: 2 µg/mL (≈ 1.57 µM); MIC [22]: 4 µg/mL (≈ 3.15 µM); MIC [23]: 1 µg/mL (≈ 0.787 µM); MIC [24]: 1 µg/mL; MIC [25]: 0.5 µg/mL (≈ 0.394 µM); MIC [26]: 32 µg/mL |
